Like-named read-outs stand apart in the source and are kept apart here.
How the values were obtained:
[1] = Lipophilicity LogDpH=7.4, shake flask method; assay type: physicochemical; settings: PBS (pH = 7.4)/n-octanol
Experimental: The LogDpH=7.4 was determined using a modified shake flask method as previously described.

[2] = target: T1, human serum albumin (HSA) (Homo sapiens, UniProt P02768); assay: HSA binding by high performance affinity chromatography (HPAC); assay type: in vitro ADME; settings: affinity to HSA by affinity chromatography (Chiralpak HSA column)
T1 construct: purchased H13H-2433
Experimental: For the determination of binding to human serum albumin (HSA) using HPLC, a Chiralpak HSA column (50 × 3 mm, 5 μm, H13H-2433) was used at a constant flow rate of 0.5 ml/min. The mobile phase (A: NH4OAc, 50 mM in H2O, pH 6.9 and B: iPrOH) was freshly prepared for each day.

AR42J cells = assay: Internalization into AR42J cells relative to [125I]TOC; assay type: cell-based; settings: percentage compared to internal reference [125I]TOC
Experimental: AR42J cells (European Collection of Cell Cultures, Salisbury, UK) were grown in RPMI 1640 medium (with 2 mM, L-Glu, 10% FCS; v/v, 37 °C, 5% CO2), harvested 24 ± 2 h and seeded in 24-well poly-L-lysine plates (2.0 × 10^5 cells/well in 1 ml culture medium). After removal of the medium, the cells were washed with assay medium (300 µl, RPMI 1640 with 2 mM L-Glu, 5% BSA; v/v) and incubated in assay medium (200 µl, 15 min, 37 °C, 5% CO2). 25 µl of the ^18F-labeled ligand (20 nM) and [^125I]TOC (1 nM) in assay medium were added followed by either 25 µl TOC in assay medium (100 µM, competition experiment) or 25 µl of assay medium (internalization experiment). Cells were incubated at 37 °C for 15, 30, and 60 min (n = 3 per compound and time point), respectively, and chilled on ice. The supernatant was collected, the well washed with ice-cold RPMI 1640 (300 µl), and the two fractions combined (unbound ligand). The cells were incubated with acid wash solution (300 µl, 0.9% NaCl, 50 mM NaOAc/AcOH buffer, pH = 4.6, 15 min, 4 °C) to remove receptor-bound radioligand. The supernatant was collected, and the cells washed with 300 µl ice-cold acid wash solution (combined fractions: acid releasable, receptor bound ligand). The cells were lysed with NaOH solution (300 µl, 1 M, 15 min, RT), washed with 300 µl of the same solution, the two fractions combined (internalized ligand), and all activities quantified using a γ-counter.

[3] = Biodistribution 1 h p.i. in AR42J xenograft bearing CD1 nu/nu mice; assay type: in vivo; settings: female, mouse, intravenous, total radioactivity, average ± Stdev
Experimental: The 8-week-old female CD1 nu/nu mice were purchased from Charles River (Sulzfeld, Germany). Animal experiments were conducted according to general animal welfare regulations (German animal protection act, as amended on 18.05.2018, Art. 141 G v. 29.3.2017 I 626, approval no. 55.2-1.2-54–2532-71-13 by the General Administration of the Free State of Bavaria; Swiss animal welfare regulations: Animal Welfare Act SR 455, license: Canton de Vaud, 3781 d). To establish tumor xenografts, AR42J cells (5 × 10^6 cells in 100 µl serum-free culture medium) were inoculated subcutaneously onto the shoulder. Mice were used for experiments when tumors had grown to a diameter of 5–9 mm (7–15 days after inoculation).
Approximately 0.5–2.5 MBq (0.05–0.20 nmol) of the ^18F-labeled ligands were injected into the tail vein of AR42J xenograft-bearing mice under isoflurane anesthesia (1.5% alveolar concentration). The mice were sacrificed 1 h post injection (n = 3–5). Organs were removed, weighed, and the activity quantified (γ-counter).
An unpaired Welch’s t-test was applied using the GraphPad Prism software (version 10.1.2). Standard deviations for tumor-to-organ (T/O) ratios were calculated using the rules of error propagation. Thresholds for statistical significance are defined as: p > 0.05 (ns); p ≤ 0.05 (*); p ≤ 0.01 (**); p ≤ 0.001 (***); p ≤ 0.0001 (****).

[4] = adrenal glands, AR42J tumor-bearing CD1 nu/nu mice, read-out: Biodistribution Adrenal Glands
[5] = blood, AR42J tumor-bearing CD1 nu/nu mice, read-out: Biodistribution Blood
[6] = femur, AR42J tumor-bearing CD1 nu/nu mice, read-out: Biodistribution Femur
[7] = heart, AR42J tumor-bearing CD1 nu/nu mice, read-out: Biodistribution Heart
[8] = intestine, AR42J tumor-bearing CD1 nu/nu mice, read-out: Biodistribution Intestine
[9] = kidney, AR42J tumor-bearing CD1 nu/nu mice, read-out: Biodistribution Kidney
[10] = liver, AR42J tumor-bearing CD1 nu/nu mice, read-out: Biodistribution Liver
[11] = lung, AR42J tumor-bearing CD1 nu/nu mice, read-out: Biodistribution Lung
[12] = muscle, AR42J tumor-bearing CD1 nu/nu mice, read-out: Biodistribution Muscle
[13] = pancreas, AR42J tumor-bearing CD1 nu/nu mice, read-out: Biodistribution Pancreas
[14] = spleen, AR42J tumor-bearing CD1 nu/nu mice, read-out: Biodistribution Spleen
[15] = stomach, AR42J tumor-bearing CD1 nu/nu mice, read-out: Biodistribution Stomach
[16] = tumor (AR42J xenograft), AR42J xenograft, CD1 nu/nu mice, read-out: Biodistribution Tumor

T1 sequence (P02768 25-609): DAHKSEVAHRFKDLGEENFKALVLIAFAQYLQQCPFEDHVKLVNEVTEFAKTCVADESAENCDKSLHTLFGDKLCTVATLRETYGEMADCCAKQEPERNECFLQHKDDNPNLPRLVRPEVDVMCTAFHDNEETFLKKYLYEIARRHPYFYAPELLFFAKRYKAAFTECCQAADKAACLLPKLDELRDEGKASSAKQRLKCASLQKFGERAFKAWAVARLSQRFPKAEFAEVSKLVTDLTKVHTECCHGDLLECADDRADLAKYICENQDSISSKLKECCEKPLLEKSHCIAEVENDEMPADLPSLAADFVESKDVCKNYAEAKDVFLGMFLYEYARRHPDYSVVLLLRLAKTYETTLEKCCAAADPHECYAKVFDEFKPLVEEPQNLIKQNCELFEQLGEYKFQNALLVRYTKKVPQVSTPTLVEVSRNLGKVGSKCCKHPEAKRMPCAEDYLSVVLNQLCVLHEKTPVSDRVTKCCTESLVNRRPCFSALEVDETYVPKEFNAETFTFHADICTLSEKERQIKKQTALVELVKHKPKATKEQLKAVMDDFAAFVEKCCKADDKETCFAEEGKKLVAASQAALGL

In the case of `C[C@@H](O)[C@H](NC(=O)[C@@H]1CSSC[C@H](NC(=O)[C@@H](Cc2ccccc2)NC(=O)CN2CCN(CC(=O)O)CCN(CC(=O)NCCCC[C@@H](NC(=O)[C@@H](CNC(=O)C[N+](C)(C)Cc3ccc([Si](F)(C(C)(C)C)C(C)(C)C)cc3)NC(=O)[C@@H](CCCNC(N)=O)NC(=O)[C@@H](CCCNC(N)=O)NC(=O)[C@H](N)CCCNC(N)=O)C(=O)O)CCN(CC(=O)O)CC2)C(=O)N[C@@H](Cc2ccc(O)cc2)C(=O)N[C@H](Cc2c[nH]c3ccccc23)C(=O)N[C@@H](CCCCN)C(=O)N[C@@H]([C@@H](C)O)C(=O)N1)C(=O)O` [[^18/natF][^natGa]rhTATE2.1, metal not drawn], the “LogDpH=7.4” value ([1]; mean of n = 8) is reported as −2.27, the “HSA HPAC” value [2] is reported as 98.8% and the Internalization (AR42J cells) is reported as 536%.

With `C[C@@H](O)[C@H](NC(=O)[C@@H]1CSSC[C@H](NC(=O)[C@@H](Cc2ccccc2)NC(=O)CN2CCN(CC(=O)O)CCN(CC(=O)NCCCC[C@@H](NC(=O)[C@@H](CNC(=O)C[N+](C)(C)Cc3ccc([Si](F)(C(C)(C)C)C(C)(C)C)cc3)NC(=O)[C@@H](CCCNC(N)=O)NC(=O)[C@@H](CCCNC(N)=O)NC(=O)[C@H](N)CCC(=O)O)C(=O)O)CCN(CC(=O)O)CC2)C(=O)N[C@@H](Cc2ccc(O)cc2)C(=O)N[C@H](Cc2c[nH]c3ccccc23)C(=O)N[C@@H](CCCCN)C(=O)N[C@@H]([C@@H](C)O)C(=O)N1)C(=O)O` [[^18/natF][^natGa]rhTATE2.2, metal not drawn] the “LogDpH=7.4” value ([1]; mean of n = 8) was −2.30, the “HSA HPAC” value [2] was 94.3% and the Internalization (AR42J cells) was 550%. The tissue uptake at 1 h [3, 4] was 4.35 ± 0.69 %ID/g, the tissue uptake at 1 h [3, 5] was 0.39 ± 0.19 %ID/g and the tissue uptake at 1 h [3, 6] was 1.7 ± 0.45 %ID/g. The tissue uptake at 1 h [3, 7] was 0.33 ± 0.01 %ID/g, the tissue uptake at 1 h [3, 8] was 2.87 ± 0.15 %ID/g and the tissue uptake at 1 h [3, 9] was 32.6 ± 3.5 %ID/g. The tissue uptake at 1 h [3, 10] was 2.43 ± 0.36 %ID/g, the tissue uptake at 1 h [3, 11] was 6.29 ± 0.65 %ID/g and the tissue uptake at 1 h [3, 12] was 0.06 ± 0.01 %ID/g. The tissue uptake at 1 h [3, 13] was 31.5 ± 2.32 %ID/g, the tissue uptake at 1 h [3, 14] was 1.31 ± 0.2 %ID/g and the tissue uptake at 1 h [3, 15] was 13.4 ± 1.6 %ID/g. The tissue uptake at 1 h [3, 16] was 27.9 ± 4.78 %ID/g.

With `C[C@@H](O)[C@H](NC(=O)[C@@H]1CSSC[C@H](NC(=O)[C@@H](Cc2ccccc2)NC(=O)CN2CCN(CC(=O)O)CCN(CC(=O)NCCCC[C@@H](NC(=O)[C@@H](CNC(=O)C[N+](C)(C)Cc3ccc([Si](F)(C(C)(C)C)C(C)(C)C)cc3)NC(=O)[C@@H](CN)NC(=O)[C@@H](CCC(=O)O)NC(=O)[C@H](N)CCC(=O)O)C(=O)O)CCN(CC(=O)O)CC2)C(=O)N[C@@H](Cc2ccc(O)cc2)C(=O)N[C@H](Cc2c[nH]c3ccccc23)C(=O)N[C@@H](CCCCN)C(=O)N[C@@H]([C@@H](C)O)C(=O)N1)C(=O)O` [[^18/natF][^natGa]rhTATE2.3, metal not drawn] the “LogDpH=7.4” value ([1]; mean of n = 8) was −2.12, the “HSA HPAC” value [2] was 96.0% and the Internalization (AR42J cells) was 619%.

For `C[C@@H](O)[C@H](NC(=O)[C@@H]1CSSC[C@H](NC(=O)[C@@H](Cc2ccccc2)NC(=O)CN2CCN(CC(=O)O)CCN(CC(=O)NCCCC[C@@H](NC(=O)[C@@H](CNC(=O)C[N+](C)(C)Cc3ccc([Si](F)(C(C)(C)C)C(C)(C)C)cc3)NC(=O)[C@@H](CCCCN)NC(=O)[C@@H](CCC(=O)O)NC(=O)[C@H](N)CCC(=O)O)C(=O)O)CCN(CC(=O)O)CC2)C(=O)N[C@@H](Cc2ccc(O)cc2)C(=O)N[C@H](Cc2c[nH]c3ccccc23)C(=O)N[C@@H](CCCCN)C(=O)N[C@@H]([C@@H](C)O)C(=O)N1)C(=O)O` [[^18/natF][^natGa]rhTATE2.4, metal not drawn], the “LogDpH=7.4” value ([1]; mean of n = 8) was −2.28, the “HSA HPAC” value [2] was 92.7% and the Internalization (AR42J cells) was 841%.

For `CC(=O)N[C@@H]1[C@@H](O)[C@H](O)[C@@H](CO)O[C@H]1NC(=O)C[C@H](NC(=O)C[N+](C)(C)Cc1ccc([Si](F)(C(C)(C)C)C(C)(C)C)cc1)C(=O)N[C@@H](CC(=O)O)C(=O)N[C@@H](CC(=O)O)C(=O)NCCOCCOCC(=O)N[C@H](Cc1ccccc1)C(=O)N[C@H]1CSSC[C@@H](C(=O)N[C@H](C(=O)O)[C@@H](C)O)NC(=O)[C@H]([C@@H](C)O)NC(=O)[C@H](CCCCN)NC(=O)[C@@H](Cc2c[nH]c3ccccc23)NC(=O)[C@H](Cc2ccc(O)cc2)NC1=O` [[^nat/18F]SiTATE, SiFAlin-Asn(Ac-NHβGlc)Asp2-PEG1-TATE, reference compound], the “LogDpH=7.4” value ([1]; mean of n = 8) was −1.27, the “HSA HPAC” value [2] was 86.8% and the Internalization (AR42J cells) was 236%. It also gave a tissue uptake at 1 h [3, 4] of 1.89 ± 0.37 %ID/g, a tissue uptake at 1 h [3, 5] of 0.81 ± 0.11 %ID/g and a tissue uptake at 1 h [3, 6] of 1.54 ± 0.34 %ID/g. For the same compound, the tissue uptake at 1 h [3, 7] was 0.47 ± 0.06 %ID/g, the tissue uptake at 1 h [3, 8] was 1.67 ± 0.21 %ID/g and the tissue uptake at 1 h [3, 9] was 16.3 ± 1 %ID/g. For the same compound, the tissue uptake at 1 h [3, 10] was 1.97 ± 0.25 %ID/g, the tissue uptake at 1 h [3, 11] was 3.38 ± 0.62 %ID/g and the tissue uptake at 1 h [3, 12] was 0.15 ± 0.02 %ID/g. It also gave a tissue uptake at 1 h [3, 13] of 8.94 ± 1.98 %ID/g, a tissue uptake at 1 h [3, 14] of 0.66 ± 0.08 %ID/g and a tissue uptake at 1 h [3, 15] of 6.75 ± 0.58 %ID/g. It also gave a tissue uptake at 1 h [3, 16] of 22.7 ± 2.68 %ID/g.

In the case of `C[C@@H](O)[C@H](NC(=O)[C@@H]1CSSC[C@H](NC(=O)[C@@H](Cc2ccccc2)NC(=O)CN2CCN(CC(=O)O)CCN(CC(=O)NC[C@@H](NC(=O)C[N+](C)(C)Cc3ccc([Si](F)(C(C)(C)C)C(C)(C)C)cc3)C(=O)O)CCN(CC(=O)O)CC2)C(=O)N[C@@H](Cc2ccc(O)cc2)C(=O)N[C@H](Cc2c[nH]c3ccccc23)C(=O)N[C@@H](CCCCN)C(=O)N[C@@H]([C@@H](C)O)C(=O)N1)C(=O)O` [[^nat/18F][^natGa]rhTATE1, N-SiFAlin-N, N-Me2-Gly-D-Dap(trans-[^natGa]DOTA-TATE), metal not drawn], the “LogDpH=7.4” value ([1]; mean of n = 8) is reported as −1.03, the “LogDpH=7.4” value ([1]; mean of n = 8, listed as [^natGa]rhTATE1) is reported as -1.03 and the “HSA HPAC” value [2] is reported as 95.4%.

In the case of `C[C@@H](O)[C@H](NC(=O)[C@@H]1CSSC[C@H](NC(=O)[C@@H](Cc2ccccc2)NC(=O)CN2CCN(CC(=O)O)CCN(CC(=O)NCCCC[C@@H](NC(=O)C[N+](C)(C)Cc3ccc([Si](F)(C(C)(C)C)C(C)(C)C)cc3)C(=O)O)CCN(CC(=O)O)CC2)C(=O)N[C@@H](Cc2ccc(O)cc2)C(=O)N[C@H](Cc2c[nH]c3ccccc23)C(=O)N[C@@H](CCCCN)C(=O)N[C@@H]([C@@H](C)O)C(=O)N1)C(=O)O` [[^nat/18F][^natGa]rhTATE2, N-SiFAlin-N, N-Me2-Gly-D-Lys(trans-[^natGa]DOTA-TATE), metal not drawn], the “LogDpH=7.4” value ([1]; mean of n = 8) is reported as −1.19 and the “HSA HPAC” value [2] is reported as 94.5%.
